# Assay results as given in ChEMBL document CHEMBL3745652, “Synthesis and evaluation of pretomanid (PA-824) oxazolidinone hybrids” (Bioorg Med Chem Lett, 2016).
# The source made the active and inactive calls. The rule behind the calls is not given here.
# How the values were obtained:
# Escherichia coli = assay: Antimicrobial activity against Escherichia coli; format: functional, organism-based
# [1] = Volume of distribution at steady state in C57BL/6 mouse at 10 mg/kg, iv; format: ADME, organism-based; details: in vivo, read-out: Vdss
# Mus musculus = assay: Toxicity in C57BL/6 mouse at 300 mg/kg, po after 3 days; format: organism-based; details: in vivo, 72 h
# Vero = assay: Cytotoxicity against African green monkey Vero cells by cell titer glo assay; format: cell-based; details: Chlorocebus sabaeus
# [2] = Clearance in C57BL/6 mouse at 10 mg/kg, iv; format: ADME, organism-based; details: in vivo
# [3] = Plasma protein binding in human; format: ADME, cell-free
# Bacillus anthracis = assay: Antimicrobial activity against Bacillus anthracis; format: functional, organism-based
# Streptococcus pneumoniae = assay: Antimicrobial activity against Streptococcus pneumoniae; format: functional, organism-based
# [4] = Half life in mouse liver microsomes; format: ADME; details: microsomes
# [5] = Apparent permeability from basolateral to apical side in human Caco2 cells; format: ADME, cell-based; details: caco-2
# [6] = tested on: Mycobacterium tuberculosis; assay: Antimicrobial activity against Mycobacterium tuberculosis H37Rv assessed as growth inhibition after 7 days by microbroth dilution method; format: functional; details: 168 h
# Acinetobacter baumannii = assay: Antimicrobial activity against Acinetobacter baumannii; format: functional, organism-based
# [7] = Apparent permeability from apical to basolateral side in human Caco2 cells; format: ADME, cell-based; details: caco-2
# Bacillus subtilis = assay: Antimicrobial activity against Bacillus subtilis; format: functional, organism-based
# [8] = tested on: Mycobacterium tuberculosis; assay: Antimicrobial activity against Mycobacterium tuberculosis H37Rv infected in C57BL/6 mouse assessed as reduction in bacterial load at 100 mg/kg, po after 28 days; format: functional, organism-based
# Staphylococcus aureus = assay: Antimicrobial activity against Staphylococcus aureus; format: functional, organism-based
# Klebsiella pneumoniae = assay: Antimicrobial activity against Klebsiella pneumoniae; format: functional, organism-based
# [9] = Half life in C57BL/6 mouse at 10 mg/kg, iv; format: ADME, organism-based; details: in vivo
# [10] = AUC(infinity) in C57BL/6 mouse at 10 mg/kg, iv; format: ADME, organism-based; set-up: dose 10 mg/kg, time infinity, route intravenous; details: in vivo
# Enterococcus faecalis = assay: Antimicrobial activity against Enterococcus faecalis; format: functional, organism-based
# Streptococcus pyogenes = assay: Antimicrobial activity against Streptococcus pyogenes; format: functional, organism-based
SMILES,Activity (Escherichia coli),Vd [1] [L/kg],Activity (Mus musculus),IC50 (Vero) [mg/L],clearance [2] [L/h/kg],PPB [3] [%],Activity (Bacillus anthracis),Activity (Streptococcus pneumoniae),t1/2 [4] [min],Papp [5] [nm/s],MIC [6] [mg/L],Activity (Acinetobacter baumannii),Papp [7] [nm/s],Activity (Bacillus subtilis),Activity [8],Activity (Staphylococcus aureus),Activity (Klebsiella pneumoniae),half-life [9] [min],AUC(0-inf) [10] [µg·h/mL],Activity (Enterococcus faecalis),other results
O=C1COCCN1c1ccc(CO[C@@H]2COc3nc([N+](=O)[O-])cn3C2)cc1,inactive,0.79,Non-toxic,> 100,1.35,50.4,inactive,inactive,1100,305.6,0.78,inactive,400.8,inactive,inactive,inactive,inactive,28.8,7.41,inactive,Activity (Streptococcus pyogenes): inactive
O=C1COCCN1c1ccc(CO[C@@H]2COc3nc([N+](=O)[O-])cn3C2)cc1F,inactive,0.63,Non-toxic,> 100,1.94,67.8,inactive,inactive,792,316.7,0.78,inactive,505.7,inactive,inactive,inactive,inactive,16.8,5.18,inactive,Activity (Streptococcus pyogenes): inactive
